Where “and” joins values, the source holds several entries; their conditions need not be identical. Equal values may be shown once. Toxic doses and inconclusive results are not listed. The calls were made as follows: active = survival T/C of 150% or more; inactive = T/C below 125% in these data.
Tested on: P388 leukemia ip, CD2F1 mice, survival T/C
Test: NCI In Vivo Anticancer Drug Screen. Data for tumor model P388 Leukemia (intraperitoneal) in CD2F1 (CDF1) mice
Details: endpoint: median survival time, higher = longer survival
Method in brief: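 Mice carrying the transplanted tumor received test compound or vehicle. Survival was recorded in each group, and the value is the treated-group measurement divided by that of the vehicle-treated control group.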

[1] = dose: 50.0 mg/kg/injection, schedule: Q01DX009 (ip), vehicle: Klucel (hydroxypropylcellulose) (HPC)
[2] = dose: 100.0 mg/kg/injection, schedule: Q01DX009 (ip), vehicle: Klucel (hydroxypropylcellulose) (HPC)
[3] = dose: 200.0 mg/kg/injection, schedule: Q01DX009 (ip), vehicle: Klucel (hydroxypropylcellulose) (HPC)
[4] = dose: 50.0 mg/kg/injection, schedule: Q01DX005 (ip), vehicle: saline with Tween-80
[5] = dose: 100.0 mg/kg/injection, schedule: Q01DX005 (ip), vehicle: saline with Tween-80
[6] = dose: 200.0 mg/kg/injection, schedule: Q01DX005 (ip), vehicle: saline with Tween-80
[7] = dose: 50.0 mg/kg/injection, schedule: Q01DX005 (ip), vehicle: Klucel (hydroxypropylcellulose) (HPC)
[8] = dose: 100.0 mg/kg/injection, schedule: Q01DX005 (ip), vehicle: Klucel (hydroxypropylcellulose) (HPC)
[9] = dose: 60.0 mg/kg/injection, schedule: Q01DX005 (ip), vehicle: saline with Tween-80
[10] = dose: 120.0 mg/kg/injection, schedule: Q01DX005 (ip), vehicle: saline with Tween-80
[11] = dose: 240.0 mg/kg/injection, schedule: Q01DX005 (ip), vehicle: saline with Tween-80
[12] = dose: 50.0 mg/kg/injection, schedule: Q01DX009 (ip), vehicle: saline with Tween-80

Measured: T/C

CCCCCCCN(CCCCCCC)CC(O)c1c(Br)c2cc(Br)ccc2c2ccc(Br)cc12 (stereo not drawn)
inactive: dose: 1.25 mg/kg/injection, schedule: Q01DX009 (ip), vehicle: saline with Tween-80 105 % of control | dose: 2.5 mg/kg/injection, schedule: Q01DX009 (ip), vehicle: saline with Tween-80 106 % of control | dose: 5.0 mg/kg/injection, schedule: Q01DX009 (ip), vehicle: saline with Tween-80 100 % of control

Cc1c2oc3c(C)ccc(C(=O)NC(C(=O)NC(C(=O)NCCO)C(C)C)C(C)O)c3nc-2c(C(=O)NC(C(=O)NC(C(=O)NCCO)C(C)C)C(C)O)c(N)c1=O (stereo not drawn)
inactive: dose: 0.05 mg/kg/injection, schedule: Q01DX009 (ip), vehicle: water 99 % of control | dose: 0.1 mg/kg/injection, schedule: Q01DX009 (ip), vehicle: water 100 % of control | dose: 0.2 mg/kg/injection, schedule: Q01DX009 (ip), vehicle: water 100 % of control | dose: 0.4 mg/kg/injection, schedule: Q01DX009 (ip), vehicle: water 97 % of control | dose: 0.8 mg/kg/injection, schedule: Q01DX009 (ip), vehicle: water 98 % of control | dose: 1.6 mg/kg/injection, schedule: Q01DX009 (ip), vehicle: water 88 % of control and 94 % of control | dose: 3.2 mg/kg/injection, schedule: Q01DX009 (ip), vehicle: water 92 % of control | dose: 6.4 mg/kg/injection, schedule: Q01DX009 (ip), vehicle: water 110 % of control | dose: 12.8 mg/kg/injection, schedule: Q01DX009 (ip), vehicle: water 97 % of control

CN=C(N)N/N=C(\C)c1ccc2c(c1)-c1ccc(/C(C)=N/NC(N)=NC)c3cccc-2c13
inactive: dose: 3.12 mg/kg/injection, schedule: Q04DX002 (ip), vehicle: saline with Tween-80 104 % of control | dose: 6.25 mg/kg/injection, schedule: Q04DX002 (ip), vehicle: saline with Tween-80 99 % of control | dose: 12.5 mg/kg/injection, schedule: Q04DX002 (ip), vehicle: saline with Tween-80 100 % of control

CCCCCCCCCCCCCCCCCC(=O)CC(=O)C(F)(F)F
inactive: dose: 50.0 mg/kg/injection, schedule: Q01DX009 (ip), vehicle: saline 100 % of control | dose: 100.0 mg/kg/injection, schedule: Q01DX009 (ip), vehicle: saline 99 % of control | dose: 200.0 mg/kg/injection, schedule: Q01DX009 (ip), vehicle: saline 99 % of control

CCCCCCCCCCCC(CCCC)CCCCCCCCCC (stereo not drawn)
inactive: dose: 50.0 mg/kg/injection, schedule: Q01DX001 (ip), vehicle: saline sonified 100 % of control | dose: 100.0 mg/kg/injection, schedule: Q01DX001 (ip), vehicle: saline sonified 104 % of control | dose: 200.0 mg/kg/injection, schedule: Q01DX001 (ip), vehicle: saline sonified 100 % of control

CC1(C)OC2CC(=O)OCC23C1CC(O)C1(C)C3CCC2(C)C(c3ccoc3)OC(=O)C3OC321 (stereo not drawn)
inactive: dose: 0.75 mg/kg/injection, schedule: Q01DX009 (ip), vehicle: saline + alcohol 99 % of control | dose: 1.5 mg/kg/injection, schedule: Q01DX009 (ip), vehicle: saline + alcohol 99 % of control | dose: 3.0 mg/kg/injection, schedule: Q01DX009 (ip), vehicle: saline + alcohol 97 % of control | dose: 6.0 mg/kg/injection, schedule: Q01DX009 (ip), vehicle: saline + alcohol 97 % of control | dose: 100.0 mg/kg/injection, schedule: Q04DX002 (ip), vehicle: saline with Tween-80 103 % of control and 98 % of control | dose: 200.0 mg/kg/injection, schedule: Q04DX002 (ip), vehicle: saline with Tween-80 101 % of control and 100 % of control | dose: 400.0 mg/kg/injection, schedule: Q04DX002 (ip), vehicle: saline with Tween-80 91 % of control and 92 % of control

CCCC/C=C/C=C/C=C/CCCCCCCC(=O)OC(COC(=O)CCCCCCC/C=C/C1C=CC(CCCC)C(C(=O)O)C1C(=O)O)COC(=O)CCCCCCC/C=C/C1C=CC(CCCC)C(C(=O)O)C1C(=O)O (stereo not drawn)
inactive: [1] 101 % of control | [2] 111 % of control | [3] 108 % of control

CCOC(=Nc1ccc(F)cc1)SC(c1ccccc1)(c1ccccc1)c1ccccc1
inactive: [4] 110 % of control | [5] 104 % of control | [6] 99 % of control

CCOP1(=S)NNP(=S)(OCC)NN1 (stereo not drawn)
inactive: [7] 96 % of control | [8] 93 % of control | dose: 200.0 mg/kg/injection, schedule: Q01DX005 (ip), vehicle: Klucel (hydroxypropylcellulose) (HPC) 104 % of control

COC(=O)[C@@]12OC[C@]34C([C@@H](O)C1O)[C@@]1(C)CC(=O)C(O)=C(C)C1C[C@H]3OC(=O)[C@H](OC(=O)c1ccccc1Cl)[C@H]42 (stereo partly drawn)
inactive: dose: 0.25 mg/kg/injection, schedule: Q01DX005 (ip), vehicle: DMSO 110 % of control | dose: 0.5 mg/kg/injection, schedule: Q01DX005 (ip), vehicle: DMSO 110 % of control | dose: 1.0 mg/kg/injection, schedule: Q01DX005 (ip), vehicle: DMSO 105 % of control and 97 % of control | dose: 2.0 mg/kg/injection, schedule: Q01DX005 (ip), vehicle: DMSO 107 % of control and 112 % of control | dose: 4.0 mg/kg/injection, schedule: Q01DX005 (ip), vehicle: DMSO 109 % of control | dose: 8.0 mg/kg/injection, schedule: Q01DX005 (ip), vehicle: DMSO 101 % of control and 107 % of control | dose: 16.0 mg/kg/injection, schedule: Q01DX005 (ip), vehicle: DMSO 108 % of control | dose: 32.0 mg/kg/injection, schedule: Q01DX005 (ip), vehicle: DMSO 107 % of control

CCC(/C=C/c1ccc(C)cc1)=N\NC(=O)c1ccccc1
inactive: [9] 98 % of control | [10] 89 % of control | [11] 90 % of control

COc1cc2cc(/C(C)=N/OCC3CO3)c(Cl)nc2cc1OC (stereo not drawn)
inactive: [4] 96 % of control | [5] 93 % of control | [6] 92 % of control

CSC(=S)N/N=C(\C)c1ccc[nH]1
inactive: [7] 99 % of control | [8] 97 % of control

O=C(NC(=S)c1ccc(Br)cc1)Nc1ccc(Cl)c(Cl)c1
inactive: dose: 12.5 mg/kg/injection, schedule: Q01DX009 (ip), vehicle: saline with Tween-80 96 % of control | dose: 25.0 mg/kg/injection, schedule: Q01DX009 (ip), vehicle: saline with Tween-80 98 % of control | [12] 106 % of control

CC(C)C(=O)Nc1ccc(S(=O)(=O)Nc2ccc(N)cc2O)cc1
inactive: [12] 96 % of control | dose: 100.0 mg/kg/injection, schedule: Q01DX009 (ip), vehicle: saline with Tween-80 101 % of control | dose: 200.0 mg/kg/injection, schedule: Q01DX009 (ip), vehicle: saline with Tween-80 104 % of control

COC(=O)c1nc(NC#N)[nH]c(=O)c1CCCCCc1cnc(NC#N)nc1
inactive: [9] 100 % of control | [10] 100 % of control | [11] 97 % of control

CC(C)(O)c1cccs1
inactive: dose: 60.0 mg/kg/injection, schedule: Q01DX005 (ip), vehicle: saline 100 % of control | dose: 120.0 mg/kg/injection, schedule: Q01DX005 (ip), vehicle: saline 100 % of control | dose: 240.0 mg/kg/injection, schedule: Q01DX005 (ip), vehicle: saline 99 % of control

O=C1C=C(N2CC2)C(=O)C(N2CC2)=C1N1CC1
active: dose: 0.02 mg/kg/injection, schedule: Q01DX005 (ip), vehicle: saline 155 % of control | dose: 0.04 mg/kg/injection, schedule: Q01DX005 (ip), vehicle: saline 157 % of control and 158 % of control and 175 % of control | dose: 0.08 mg/kg/injection, schedule: Q01DX005 (ip), vehicle: saline 191 % of control and 194 % of control and 214 % of control | dose: 0.16 mg/kg/injection, schedule: Q01DX005 (ip), vehicle: saline 215 % of control and 226 % of control and 287 % of control
inactive: dose: 0.32 mg/kg/injection, schedule: Q01DX005 (ip), vehicle: saline 111 % of control

C=CCC1=CC2(OC)C(=O)C(OC)(OC)C1C1C(OC)(OC)C(=O)C(OC)=CC12CC=C (stereo not drawn)
inactive: dose: 18.75 mg/kg/injection, schedule: Q01DX009 (ip), vehicle: Klucel (hydroxypropylcellulose) (HPC) 114 % of control and 93 % of control | dose: 37.5 mg/kg/injection, schedule: Q01DX009 (ip), vehicle: Klucel (hydroxypropylcellulose) (HPC) 99 % of control | dose: 75.0 mg/kg/injection, schedule: Q01DX009 (ip), vehicle: Klucel (hydroxypropylcellulose) (HPC) 102 % of control and 112 % of control | dose: 150.0 mg/kg/injection, schedule: Q01DX009 (ip), vehicle: Klucel (hydroxypropylcellulose) (HPC) 94 % of control | [3] 94 % of control

Cc1c(O)ccc(C(=O)C(=O)C(C)C)c1O
inactive: [1] 115 % of control | [2] 116 % of control | [3] 116 % of control
